Source: PubChem BioAssay (NCI)
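Where inhibition never reached the appropriate level, the endpoint shown equals the highest concentration tested. Otherwise, values were interpolated linearly from a five-concentration, 48-hour dose response in 96-well plates. TGI denotes the concentration required for complete inhibition of growth.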

Legend:
Experiment in all cases: DTP human tumour cell line panel, 48 h
K-562 leukemia = test system: K-562 leukemia
CAKI-1 renal = test system: CAKI-1 renal
A549 NSCLC = test system: A549 NSCLC
NCI-H226 lung = test system: NCI-H226 lung
SK-MEL-28 melanoma = test system: SK-MEL-28 melanoma
SK-MEL-5 melanoma = test system: SK-MEL-5 melanoma
HCT-15 colon = test system: HCT-15 colon
SF-295 CNS = test system: SF-295 CNS
786-0 renal = test system: 786-0 renal
T-47D breast = test system: T-47D breast

For C=C1C(=O)OC2C=C(C)CC3C=C(CCC=C(C)CCC12)C(=O)O3 (centres undefined), the TGI (K-562 leukemia) was 228 µM, the TGI (CAKI-1 renal) was 140 µM and the TGI (A549 NSCLC) was 203 µM. The TGI (NCI-H226 lung) was 174 µM, the TGI (SK-MEL-28 melanoma) was 119 µM and the TGI (SK-MEL-5 melanoma) was 138 µM. The TGI (HCT-15 colon) was 131 µM and the TGI (SF-295 CNS) was 200 µM.

Work on COC(=O)C12CCC(CC1=O)C2(C)C (centres undefined) yielded a TGI (786-0 renal) greater than 100 µM, a TGI (K-562 leukemia) greater than 100 µM and a TGI (A549 NSCLC) greater than 100 µM. For the same compound, the TGI (NCI-H226 lung) was greater than 100 µM, the TGI (SK-MEL-28 melanoma) was greater than 100 µM and the TGI (SK-MEL-5 melanoma) was greater than 100 µM. It also gave a TGI (HCT-15 colon) greater than 100 µM and a TGI (SF-295 CNS) greater than 100 µM.

COc1ccc(/C=C2\CCC(C)(CN(C)C)C2=O)cc1Br (centres undefined) gave a TGI (786-0 renal) of 34.9 µM, a TGI (K-562 leukemia) of 64.9 µM and a TGI (CAKI-1 renal) greater than 91.6 µM. It also gave a TGI (A549 NSCLC) greater than 100 µM, a TGI (NCI-H226 lung) of 56.1 µM and a TGI (SK-MEL-28 melanoma) of 45.4 µM. It also gave a TGI (SK-MEL-5 melanoma) of 28.3 µM, a TGI (HCT-15 colon) of 32.2 µM and a TGI (SF-295 CNS) of 80.7 µM.

Work on Cn1cnc([N+](=O)[O-])c1Sc1nnc(-c2ccc(Cl)cc2)n1C yielded a TGI (K-562 leukemia) of 34.2 µM, a TGI (CAKI-1 renal) of 29.7 µM and a TGI (A549 NSCLC) greater than 100 µM. The TGI (NCI-H226 lung) was 65.9 µM, the TGI (SK-MEL-28 melanoma) was 27.4 µM and the TGI (SF-295 CNS) was greater than 100 µM.

Compound Cc1c2cc[n+](C)cc2c(C)c2c1[nH]c1ccc(OC(C)(C)C)cc12 has a TGI (786-0 renal) greater than 100 µM, a TGI (K-562 leukemia) greater than 100 µM and a TGI (CAKI-1 renal) greater than 100 µM. For the same compound, the TGI (A549 NSCLC) was greater than 100 µM, the TGI (NCI-H226 lung) was greater than 100 µM and the TGI (SK-MEL-28 melanoma) was greater than 100 µM. It also gave a TGI (SK-MEL-5 melanoma) greater than 100 µM, a TGI (HCT-15 colon) greater than 100 µM and a TGI (SF-295 CNS) greater than 100 µM.

CCC(/C(=N/NC(=O)C[N+](C)(C)C)c1ccccc1)C1OC(=O)c2ccccc21 (centres undefined) gave a TGI (786-0 renal) greater than 100 µM, a TGI (K-562 leukemia) greater than 100 µM and a TGI (CAKI-1 renal) greater than 100 µM. It also gave a TGI (A549 NSCLC) greater than 100 µM, a TGI (NCI-H226 lung) greater than 100 µM and a TGI (SK-MEL-28 melanoma) greater than 100 µM. It also gave a TGI (SK-MEL-5 melanoma) greater than 100 µM, a TGI (HCT-15 colon) greater than 100 µM and a TGI (SF-295 CNS) greater than 100 µM.

Compound COc1ccc(NC(=O)CC2SC(=Nc3ccc(Cl)cc3C)NC2=O)c([N+](=O)[O-])c1 (centres undefined) has a TGI (786-0 renal) greater than 100 µM, a TGI (K-562 leukemia) greater than 100 µM and a TGI (CAKI-1 renal) greater than 100 µM. It also gave a TGI (A549 NSCLC) greater than 100 µM, a TGI (NCI-H226 lung) greater than 100 µM and a TGI (SK-MEL-28 melanoma) greater than 100 µM. The TGI (SK-MEL-5 melanoma) was greater than 100 µM, the TGI (HCT-15 colon) was greater than 100 µM and the TGI (SF-295 CNS) was greater than 100 µM.

Work on O=C(NC12CC3CC(CC(C3)C1)C2)n1cnc2c(Cl)ncnc21 yielded a TGI (T-47D breast) greater than 100 µM, a TGI (786-0 renal) greater than 100 µM and a TGI (K-562 leukemia) greater than 100 µM. For the same compound, the TGI (CAKI-1 renal) was greater than 100 µM, the TGI (A549 NSCLC) was greater than 100 µM and the TGI (SK-MEL-28 melanoma) was greater than 100 µM. The TGI (SK-MEL-5 melanoma) was 53.5 µM, the TGI (HCT-15 colon) was greater than 100 µM and the TGI (SF-295 CNS) was greater than 100 µM.

Nc1ccc2ncc(NCc3ccc(F)cc3)nc2c1 gave a TGI (786-0 renal) greater than 100 µM, a TGI (K-562 leukemia) greater than 100 µM and a TGI (CAKI-1 renal) greater than 100 µM. The TGI (A549 NSCLC) was greater than 100 µM, the TGI (NCI-H226 lung) was greater than 100 µM and the TGI (SK-MEL-28 melanoma) was greater than 100 µM. The TGI (SK-MEL-5 melanoma) was greater than 100 µM, the TGI (HCT-15 colon) was greater than 100 µM and the TGI (SF-295 CNS) was greater than 100 µM.

For Cc1nc2cc3[nH]c4ccccc4c(=O)c3cc2s1, the TGI (786-0 renal) was greater than 100 µM, the TGI (K-562 leukemia) was greater than 100 µM and the TGI (CAKI-1 renal) was greater than 100 µM. The TGI (A549 NSCLC) was greater than 100 µM, the TGI (NCI-H226 lung) was greater than 100 µM and the TGI (SK-MEL-5 melanoma) was greater than 100 µM. For the same compound, the TGI (HCT-15 colon) was greater than 100 µM and the TGI (SF-295 CNS) was greater than 100 µM.

COc1ccc(-c2oc(C=Nc3ccccc3)c([N+](=O)[O-])c2-c2ccc(OC)c(OC)c2)cc1OC showed a TGI (786-0 renal) greater than 100 µM, a TGI (K-562 leukemia) greater than 100 µM and a TGI (CAKI-1 renal) greater than 100 µM. For the same compound, the TGI (A549 NSCLC) was greater than 100 µM, the TGI (NCI-H226 lung) was greater than 100 µM and the TGI (SK-MEL-28 melanoma) was greater than 100 µM. For the same compound, the TGI (SK-MEL-5 melanoma) was greater than 100 µM, the TGI (HCT-15 colon) was greater than 100 µM and the TGI (SF-295 CNS) was greater than 100 µM.

With O=C(C#Cc1ccccc1)Nc1ccccc1CC(c1c[nH]c2ccccc12)c1c[nH]c2ccccc12 the TGI (786-0 renal) was 29.4 µM, the TGI (K-562 leukemia) was 36.5 µM and the TGI (CAKI-1 renal) was greater than 100 µM. For the same compound, the TGI (A549 NSCLC) was greater than 100 µM, the TGI (NCI-H226 lung) was 35.2 µM and the TGI (SK-MEL-28 melanoma) was 32.4 µM. It also gave a TGI (SK-MEL-5 melanoma) of 31.8 µM and a TGI (SF-295 CNS) of 80 µM.

CN(C)c1ccc(/C=C(\C#N)C(=O)c2ccccc2)cc1Br showed a TGI (786-0 renal) greater than 100 µM, a TGI (K-562 leukemia) greater than 100 µM and a TGI (CAKI-1 renal) greater than 100 µM. For the same compound, the TGI (A549 NSCLC) was greater than 100 µM, the TGI (NCI-H226 lung) was greater than 100 µM and the TGI (SK-MEL-28 melanoma) was greater than 100 µM. The TGI (SK-MEL-5 melanoma) was greater than 100 µM and the TGI (SF-295 CNS) was greater than 100 µM.

In the case of COc1ccccc1-c1nc[nH]c1-c1ccccc1OC, the TGI (T-47D breast) is reported as greater than 100 µM, the TGI (786-0 renal) is reported as greater than 100 µM and the TGI (K-562 leukemia) is reported as 65 µM. It also gave a TGI (CAKI-1 renal) greater than 100 µM, a TGI (A549 NSCLC) greater than 100 µM and a TGI (SK-MEL-28 melanoma) greater than 100 µM. It also gave a TGI (HCT-15 colon) greater than 100 µM and a TGI (SF-295 CNS) of 97.9 µM.

Work on O=C(O)C(=Cc1ccc(-c2ccc([N+](=O)[O-])cc2)o1)C(=O)O yielded a TGI (786-0 renal) greater than 100 µM, a TGI (K-562 leukemia) greater than 100 µM and a TGI (CAKI-1 renal) greater than 100 µM. For the same compound, the TGI (A549 NSCLC) was greater than 100 µM, the TGI (NCI-H226 lung) was greater than 100 µM and the TGI (SK-MEL-28 melanoma) was greater than 100 µM. The TGI (SK-MEL-5 melanoma) was greater than 100 µM, the TGI (HCT-15 colon) was greater than 100 µM and the TGI (SF-295 CNS) was greater than 100 µM.

Compound CCOC1=C2N=C(C(CC)c3ccc(F)cc3)N=C2C(=O)c2ccccc21 (centres undefined) has a TGI (786-0 renal) greater than 100 µM, a TGI (K-562 leukemia) greater than 100 µM and a TGI (CAKI-1 renal) of 84.7 µM. The TGI (A549 NSCLC) was greater than 85.8 µM, the TGI (NCI-H226 lung) was 41.6 µM and the TGI (SK-MEL-28 melanoma) was greater than 89.4 µM. For the same compound, the TGI (SK-MEL-5 melanoma) was 26.9 µM, the TGI (HCT-15 colon) was greater than 100 µM and the TGI (SF-295 CNS) was 63.7 µM.

Nc1nc2c(nnn2C2C=C(CO)C(O)C2O)c(=O)[nH]1 (centres undefined) was tested, and the TGI (786-0 renal) was greater than 100 µM, the TGI (K-562 leukemia) was greater than 100 µM and the TGI (CAKI-1 renal) was greater than 100 µM. For the same compound, the TGI (A549 NSCLC) was greater than 100 µM, the TGI (NCI-H226 lung) was greater than 100 µM and the TGI (SK-MEL-28 melanoma) was greater than 100 µM. The TGI (SK-MEL-5 melanoma) was greater than 100 µM, the TGI (HCT-15 colon) was greater than 100 µM and the TGI (SF-295 CNS) was greater than 100 µM.
